This series can be described thus: recombinant UMI read abundance after kanamycin selection (control-corrected) (log10(CPM+1)); higher = more efficient recombination; extreme values may be limits of the assay; sequences stand for … in AGTGCAGAGAAAATCGGCCAGTTTTCTCTGCCTGCAGTCCGCATGCCGTGGGACCCCTTGGGTTCTAACCTGTTGCCTAGATTTATGCAGCGGACTGCCTTTCTCCCAAAGTGATAAACCGG…AGGTTGGTTTCACT; site = the 11-nt donor. Summed up: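 Sequencing read counts were converted to CPM, averaged over two replicates and scaled by control-derived factors. Results are given as log10(CPM+1). The reads covered the donor–target junction of recombinant UMIs from a pooled Escherichia coli screen of donor and donor-binding-loop pairs for the IS621 bridge recombinase.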
Consider “CAATTCCCATGGACCGGTTTTCCCGGTAATCCGTATTTGCT (site CAATTCCCTTG)”, for which the “recombinant UMI read abundance (log10)” value amounted to 0.615.
For “CAATTCCCATGGACCGGTTTTCCCGGTAATCCGTATTTGCT (site CAATTCGCTAG)” the value was 0.00609; for “CAATTCCCATGGACCGGTTTTCCCGGTAATCCGTATTTGCT (site CAATTCTCTAG)”, 2.13; for “CAATTCCCATGGACCGGTTTTCCCGGTAATCCGTATTTGCT (site CAATTGCCTAG)”, 0.
Consider “CAATTCCCATGGACCGGTTTTCCCGGTAATCCGTATTTGCT (site CAATTTCCTAG)”, for which the “recombinant UMI read abundance (log10)” value was found to be 0.
“CAATTCCCATGGACCGGTTTTCCCGGTAATCCGTATTTGCT (site CACTTCCCTAG)”: the “recombinant UMI read abundance (log10)” value is 0.171.
“CAATTCCCATGGACCGGTTTTCCCGGTAATCCGTATTTGCT (site CAGTTCCCTAG)”: the “recombinant UMI read abundance (log10)” value was 0.
On to “CAATTCCCATGGACCGGTTTTCCCGGTAATCCGTATTTGCT (site CATTTCCCTAG)”, for which the “recombinant UMI read abundance (log10)” value is 0.
On to “CAATTCCCATGGACCGGTTTTCCCGGTAATCCGTATTTGCT (site CCATTCCCTAG)”, for which the “recombinant UMI read abundance (log10)” value stood at 1.17.
Consider “CAATTCCCATGGACCGGTTTTCCCGGTAATCCGTATTTGCT (site CGATTCCCTAG)”, for which the “recombinant UMI read abundance (log10)” value came out at 0.
For the sequence “CAATTCCCATGGACCGGTTTTCCCGGTAATCCGTATTTGCT (site CTATTCCCTAG)”, the “recombinant UMI read abundance (log10)” value was 0.
In the case of “CAATTCCCATGGACCGGTTTTCCCGGTAATCCGTATTTGCT (site GAATTCCCTAG)”, the “recombinant UMI read abundance (log10)” value worked out at 0.
As for “CAATTCCCATGGACCGGTTTTCCCGGTAATCCGTATTTGCT (site TAATTCCCTAG)”, the “recombinant UMI read abundance (log10)” value amounted to 0.428.
For “CAATTCGCATGGACCGGTTTTCCCGGTAATCCGTATTTGCT (site CAATTCACTAG)” the value was 1.08; for “CAATTCGCATGGACCGGTTTTCCCGGTAATCCGTATTTGCT (site CAATTCCCTAG)”, 0; for “CAATTCGCATGGACCGGTTTTCCCGGTAATCCGTATTTGCT (site CAATTCGCTAG)”, 0.564.
For “CAATTCGCATGGACCGGTTTTCCCGGTAATCCGTATTTGCT (site CAATTCTCTAG)” the value was 0; for “CAATTCTCATGGACCGGTTTTCCCGGTAATCCGTATTTGAA (site CAATACTCTTT)”, 0.00453; for “CAATTCTCATGGACCGGTTTTCCCGGTAATCCGTATTTGAA (site CAATCCTCTTT)”, 0.327.
“CAATTCTCATGGACCGGTTTTCCCGGTAATCCGTATTTGAA (site CAATGCTCTTT)”: the “recombinant UMI read abundance (log10)” value came to 0.0109.
With “CAATTCTCATGGACCGGTTTTCCCGGTAATCCGTATTTGAA (site CAATTCTCTTT)”, the “recombinant UMI read abundance (log10)” value turned out to be 2.5.
On to “CACAACGCATGGACCGGTTTTCCCGGTAATCCGTATTTGCA (site CACAACGCTTG)”, for which the “recombinant UMI read abundance (log10)” value came out at 2.49.
On to “CACACCCCATGGACCGGTTTTCCCGGTAATCCGTATTTGCC (site CACACCCCTGG)”, for which the “recombinant UMI read abundance (log10)” value is 1.91.
For “CACACCTCATGGACCGGTTTTCCCGGTAATCCGTATTTGCC (site CACACCTCTGG)” the value was 2.87; for “CACACCTCATGGACCGGTTTTCCCGGTAATCCGTATTTGCC (site CACCCCTCTGG)”, 1.27.
In the case of “CACACCTCATGGACCGGTTTTCCCGGTAATCCGTATTTGCC (site CACGCCTCTGG)”, the “recombinant UMI read abundance (log10)” value is 0.
Take “CACACCTCATGGACCGGTTTTCCCGGTAATCCGTATTTGCC (site CACTCCTCTGG)”: the “recombinant UMI read abundance (log10)” value was found to be 1.97.
“CACAGATCATGGACCGGTTTTCCCGGTAATCCGTATTTGCT (site CACAGATCTAG)”: the “recombinant UMI read abundance (log10)” value was found to be 2.32.
“CACAGCGCATGGACCGGTTTTCCCGGTAATCCGTATTTGTT (site CACAGCGCTAA)”: the “recombinant UMI read abundance (log10)” value stood at 1.99.
For the sequence “CACAGGTCATGGACCGGTTTTCCCGGTAATCCGTATTTGAT (site CACAGGTCTAT)”, the “recombinant UMI read abundance (log10)” value worked out at 2.14.
As to “CACATGACATGGACCGGTTTTCCCGGTAATCCGTATTTGGA (site CACATGACTTC)”, the “recombinant UMI read abundance (log10)” value was determined as 1.1.
On to “CACATGTCATGGACCGGTTTTCCCGGTAATCCGTATTTGCA (site CACATGTCTTG)”, for which the “recombinant UMI read abundance (log10)” value amounted to 2.4.
Consider “CACATTTCATGGACCGGTTTTCCCGGTAATCCGTATTTGAA (site CACATTTCTTT)”, for which the “recombinant UMI read abundance (log10)” value was found to be 0.
For “CACCACACATGGACCGGTTTTCCCGGTAATCCGTATTTGTA (site CACCACACTTA)”, the “recombinant UMI read abundance (log10)” value came to 2.13.
Regarding “CACCACACATGGACCGGTTTTCCCGGTAATCCGTATTTGTA (site CCCCACACTTA)”, the “recombinant UMI read abundance (log10)” value came to 0.591.
As for “CACCACACATGGACCGGTTTTCCCGGTAATCCGTATTTGTA (site CGCCACACTTA)”, the “recombinant UMI read abundance (log10)” value stood at 0.29.
For the sequence “CACCACACATGGACCGGTTTTCCCGGTAATCCGTATTTGTA (site CTCCACACTTA)”, the “recombinant UMI read abundance (log10)” value stood at 0.179.
As to “CACCCGACATGGACCGGTTTTCCCGGTAATCCGTATTTGTA (site CACCCGACTTA)”, the “recombinant UMI read abundance (log10)” value is 1.32.
As to “CACCCGTCATGGACCGGTTTTCCCGGTAATCCGTATTTGTT (site CACCCGTCTAA)”, the “recombinant UMI read abundance (log10)” value was 2.2.
For “CACCGATCATGGACCGGTTTTCCCGGTAATCCGTATTTGCC (site CACCGATCTGG)”, the “recombinant UMI read abundance (log10)” value amounted to 2.44.
For “CACCTTACATGGACCGGTTTTCCCGGTAATCCGTATTTGCC (site CACCTTACTGG)”, the “recombinant UMI read abundance (log10)” value is 1.46.
For the sequence “CACGACACATGGACCGGTTTTCCCGGTAATCCGTATTTGTG (site CACGACACTCA)”, the “recombinant UMI read abundance (log10)” value amounted to 1.41.
Turning to “CACGATTCATGGACCGGTTTTCCCGGTAATCCGTATTTGCC (site CACGATTCTGG)”, the “recombinant UMI read abundance (log10)” value came to 2.11.
As for “CACGCAGCATGGACCGGTTTTCCCGGTAATCCGTATTTGCG (site CACGCAGCTCG)”, the figure is 1.32.
On to “CACGCGCCATGGACCGGTTTTCCCGGTAATCCGTATTTGTG (site CAAGCGCCTCA)”, for which the “recombinant UMI read abundance (log10)” value is 0.00364.
Regarding “CACGCGCCATGGACCGGTTTTCCCGGTAATCCGTATTTGTG (site CACGCGCCTCA)”, the “recombinant UMI read abundance (log10)” value was determined as 0.00403.
In the case of “CACGCGCCATGGACCGGTTTTCCCGGTAATCCGTATTTGTG (site CAGGCGCCTCA)”, the “recombinant UMI read abundance (log10)” value came out at 0.056.
On to “CACGCGCCATGGACCGGTTTTCCCGGTAATCCGTATTTGTG (site CATGCGCCTCA)”, for which the “recombinant UMI read abundance (log10)” value was 0.
As for “CACGCGTCATGGACCGGTTTTCCCGGTAATCCGTATTTGGG (site CACGCGTCTCC)”, the figure is 1.04; as for “CACGGCCCATGGACCGGTTTTCCCGGTAATCCGTATTTGTT (site AACGGCCCTAA)”, 0.0126.
For “CACGGCCCATGGACCGGTTTTCCCGGTAATCCGTATTTGTT (site CAAGGCCCTAA)” the value was 0.0138.
As for “CACGGCCCATGGACCGGTTTTCCCGGTAATCCGTATTTGTT (site CACAGCCCTAA)”, the “recombinant UMI read abundance (log10)” value amounted to 0.215.
In the case of “CACGGCCCATGGACCGGTTTTCCCGGTAATCCGTATTTGTT (site CACCGCCCTAA)”, the “recombinant UMI read abundance (log10)” value was found to be 0.0224.
As for “CACGGCCCATGGACCGGTTTTCCCGGTAATCCGTATTTGTT (site CACGACCCTAA)”, the “recombinant UMI read abundance (log10)” value is 0.652.
For “CACGGCCCATGGACCGGTTTTCCCGGTAATCCGTATTTGTT (site CACGCCCCTAA)” the value was 0.0151.
In the case of “CACGGCCCATGGACCGGTTTTCCCGGTAATCCGTATTTGTT (site CACGGACCTAA)”, the “recombinant UMI read abundance (log10)” value is 0.0168.
For “CACGGCCCATGGACCGGTTTTCCCGGTAATCCGTATTTGTT (site CACGGCACTAA)” the value was 0.0172; for “CACGGCCCATGGACCGGTTTTCCCGGTAATCCGTATTTGTT (site CACGGCCCTAA)”, 0.135.
For the sequence “CACGGCCCATGGACCGGTTTTCCCGGTAATCCGTATTTGTT (site CACGGCCCTAC)”, the “recombinant UMI read abundance (log10)” value came out at 0.017.
Regarding “CACGGCCCATGGACCGGTTTTCCCGGTAATCCGTATTTGTT (site CACGGCCCTAG)”, the “recombinant UMI read abundance (log10)” value was 1.14.
As to “CACGGCCCATGGACCGGTTTTCCCGGTAATCCGTATTTGTT (site CACGGCCCTAT)”, the “recombinant UMI read abundance (log10)” value worked out at 0.437.
As for “CACGGCCCATGGACCGGTTTTCCCGGTAATCCGTATTTGTT (site CACGGCCCTCA)”, the figure is 0.0268.
As for “CACGGCCCATGGACCGGTTTTCCCGGTAATCCGTATTTGTT (site CACGGCCCTGA)”, the “recombinant UMI read abundance (log10)” value came out at 1.16.
For the sequence “CACGGCCCATGGACCGGTTTTCCCGGTAATCCGTATTTGTT (site CACGGCCCTTA)”, the “recombinant UMI read abundance (log10)” value turned out to be 0.0328.
In the case of “CACGGCCCATGGACCGGTTTTCCCGGTAATCCGTATTTGTT (site CACGGCGCTAA)”, the “recombinant UMI read abundance (log10)” value came out at 0.0318.
As for “CACGGCCCATGGACCGGTTTTCCCGGTAATCCGTATTTGTT (site CACGGCTCTAA)”, the figure is 1.79.
Regarding “CACGGCCCATGGACCGGTTTTCCCGGTAATCCGTATTTGTT (site CACGGGCCTAA)”, the “recombinant UMI read abundance (log10)” value is 0.
Turning to “CACGGCCCATGGACCGGTTTTCCCGGTAATCCGTATTTGTT (site CACGGTCCTAA)”, the “recombinant UMI read abundance (log10)” value was found to be 0.311.

For the origin of these results see the supplement of paper PMC11208160.
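Note: IS621 bridge recombinase in Escherichia coli cells against a fixed T5 target plasmid.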
